Values of other authors as cited in patent EP2933251A1, “PHARMACEUTICAL COMPOSITION USABLE FOR THE TREATMENT OF A PATHOLOGY OF THE FOOT OF A HOOFED MAMMAL” (Weyts, Peter, priority 2014, dated 2015).

Tested on: vaisseaux sanguins du sabot du cheval
Settings: as stated in WO 2006/100468 A1

CC(=O)N[C@@H](CS)C(=O)O [N-acétylcystéine]
contraction des vaisseaux sanguins du sabot du cheval: permet de réduire la contraction des vaisseaux sanguins du sabot du cheval
